From ChEMBL document CHEMBL1137895, “Synthesis and activity of 2-[4-(4-[3H]-2-cyanophenyl)piperazinyl]-N-(2,4,6-[3H]3-3-methylphenyl)acetamide: a selective dopamine D4 receptor agonist and radioligand” (Bioorg Med Chem Lett, 2004)

Key:
D(4) dopamine receptor [1] = molecular target: T1, D(4) dopamine receptor (Homo sapiens, UniProt P21917); test: In vitro ability to inhibit [3H]6b binding to human Dopamine receptor D4.4
T1 sequence (P21917 whole entry): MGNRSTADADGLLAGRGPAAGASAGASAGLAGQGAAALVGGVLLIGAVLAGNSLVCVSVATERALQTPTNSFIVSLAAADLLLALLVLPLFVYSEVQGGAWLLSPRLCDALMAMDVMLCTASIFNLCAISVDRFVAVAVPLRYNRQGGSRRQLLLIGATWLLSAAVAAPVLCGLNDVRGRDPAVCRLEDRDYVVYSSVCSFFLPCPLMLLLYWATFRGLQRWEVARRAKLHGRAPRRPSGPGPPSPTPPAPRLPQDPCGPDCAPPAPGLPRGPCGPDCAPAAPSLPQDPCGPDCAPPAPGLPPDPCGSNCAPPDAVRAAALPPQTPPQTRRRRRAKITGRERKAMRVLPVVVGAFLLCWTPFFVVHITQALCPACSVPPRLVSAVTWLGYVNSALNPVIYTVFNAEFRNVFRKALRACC

D(4) dopamine receptor [2] = molecular target: T1, D(4) dopamine receptor; test: In vitro ability to inhibit [3H]spiperone binding to human Dopamine receptor D4.4
D(4) dopamine receptor [3] = molecular target: T1, D(4) dopamine receptor; test: Agonist activity was calculated in calcium flux assay using HEK293 cells co-transfected with human Dopamine receptor D4.4 and Galphaqo5; type: functional, cell-based
[4] = molecular target: T2, D(4) dopamine receptor (Homo sapiens) (UniProt P21917); test: Efficacy in calcium flux assay using HEK293 cells co-transfected with human Dopamine receptor D4.4 and G-alpha-qo5 relative to 10 uM dopamine; type: functional, cell-based
T2 sequence (whole entry): T1 sequence (P21917 whole entry)

D(4) dopamine receptor [5] = molecular target: T1, D(4) dopamine receptor; test: In vitro ability to inhibit [3H]spiperone binding to human Dopamine receptor D4.4 allele

| Compound | Ki (D(4) dopamine receptor [1]) [nM] | Ki (D(4) dopamine receptor [2]) [nM] | EC50 (D(4) dopamine receptor [3]) [nM] | E [4] [%] | Ki (D(4) dopamine receptor [5]) [nM] |
| --- | --- | --- | --- | --- | --- |
| COc1cccc(N2CCN(CC(=O)Nc3cccc(C)c3)CC2)c1 | 39.1 | 46 | > 10000 | – | – |
| Cc1cc(NC(=O)CN2CCN(c3ccc(Br)cc3C#N)CC2)ccc1Br | 14 | 54.2 | > 10000 | – | – |
| COc1ccccc1N1CCN(CC(=O)Nc2cccc(C)c2)CC1 | 1.8 | – | 26.8 | 60 | 0.7 |
| COc1ccc(N2CCN(CC(=O)Nc3cccc(C)c3)CC2)cc1 | 88.9 | 101 | > 10000 | – | – |
| Cc1cccc(NC(=O)CN2CCN(c3ccc(F)cc3)CC2)c1 | 90.7 | 61.9 | > 10000 | – | – |
